How the values were obtained:
Type in all cases: functional
[1] = biological target: T1, Cdk-related protein kinase 6 (Plasmodium falciparum, UniProt O77239); experiment: Final concentrations were 1.5 uM ATP, 5 mM MnCl2, and 15 ug/ml PK6 in a buffer of 100 mM Tris-HCl (pH 7.5). 50 ug/mL MBP was provided as the substrate; 10 uM staurosporine was used as a control inhibitor. Incubation time was 3 hours and 40 minutes.The catalytic activity of each kinase was considered proportional to ATP consumed, as determined from measurements of residual [ATP] with the luciferase-based reagent Kinase-Glo (Promega) following incubation. Luminescence (proportional to residual [ATP]) was measured on the plate readers FLx800 (BioTek Instruments, Winooski, VT, USA) and MicroBeta2.
T1 sequence (O77239 whole entry): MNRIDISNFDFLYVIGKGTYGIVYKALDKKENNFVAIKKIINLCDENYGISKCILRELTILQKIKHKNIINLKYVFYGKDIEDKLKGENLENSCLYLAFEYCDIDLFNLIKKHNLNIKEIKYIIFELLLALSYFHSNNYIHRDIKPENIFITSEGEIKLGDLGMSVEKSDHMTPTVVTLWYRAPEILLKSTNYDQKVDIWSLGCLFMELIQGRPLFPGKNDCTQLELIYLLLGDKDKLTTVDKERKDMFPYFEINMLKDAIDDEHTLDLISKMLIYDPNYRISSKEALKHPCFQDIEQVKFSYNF

[2] = biological target: T2, Putative uncharacterized protein pk7 (Plasmodium falciparum, UniProt O96214); experiment: Final concentrations were 1 uM ATP, 2 mM DTT, 20 mM MgCl2, 2 mM MnCl2, 0.01% BSA, and 6 ug/ml PK7, in a buffer of 20 mM Tris-HCl (pH 7.5). The enzyme itself was the only substrate present (since autophosphorylation occurs); 100 uM 1NA-PP1 was used as a control inhibitor. Incubation time was 3 hours.
T2 sequence (O96214 whole entry): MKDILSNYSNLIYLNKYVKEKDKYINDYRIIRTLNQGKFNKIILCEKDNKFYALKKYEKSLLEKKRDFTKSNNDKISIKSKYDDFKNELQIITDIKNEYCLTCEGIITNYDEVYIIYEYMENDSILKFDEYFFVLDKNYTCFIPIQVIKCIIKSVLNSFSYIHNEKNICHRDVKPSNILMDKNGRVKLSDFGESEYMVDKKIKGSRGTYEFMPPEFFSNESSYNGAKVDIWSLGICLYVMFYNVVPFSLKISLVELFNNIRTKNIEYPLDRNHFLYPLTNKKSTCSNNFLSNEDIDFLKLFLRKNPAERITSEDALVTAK

[3] = biological target: T3, Mitogen-activated protein kinase (Plasmodium falciparum, UniProt Q25917); experiment: Final concentrations were 1 uM ATP, 0.5 mM DTT, 1 mM MgCl2, 0.5 mg/mL BSA, and 10 ug/ml MAP2 in a buffer of 50 mM HEPES (pH 7.0). 0.5 mg/mL histone III-S served as the substrate (13); 100 uM AMP-PNP, an ATP analog, was used as a control inhibitor. Incubation time was 4 hours.
T3 sequence (Q25917 whole entry): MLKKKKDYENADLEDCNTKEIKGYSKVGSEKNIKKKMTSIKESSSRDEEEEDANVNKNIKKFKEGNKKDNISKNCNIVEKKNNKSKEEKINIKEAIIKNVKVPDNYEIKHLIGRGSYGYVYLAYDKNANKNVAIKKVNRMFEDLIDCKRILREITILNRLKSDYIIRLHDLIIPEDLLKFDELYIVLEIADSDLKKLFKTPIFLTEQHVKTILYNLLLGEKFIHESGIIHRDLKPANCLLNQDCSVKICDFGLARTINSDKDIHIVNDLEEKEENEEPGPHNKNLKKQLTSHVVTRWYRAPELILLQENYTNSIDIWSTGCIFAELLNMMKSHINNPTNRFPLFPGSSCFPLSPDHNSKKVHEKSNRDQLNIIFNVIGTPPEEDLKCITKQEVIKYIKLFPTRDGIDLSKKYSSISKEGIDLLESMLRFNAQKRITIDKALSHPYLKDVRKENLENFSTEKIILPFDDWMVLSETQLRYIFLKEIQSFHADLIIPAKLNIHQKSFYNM

[4] = biological target: Calcium-dependent protein kinase 1 (Plasmodium falciparum, UniProt P62344); experiment: MMV: CDPK1 Protein kinase inhibition assay using recombinant PfCDPK1, syntide 2 peptide substrate, ATP and KinaseGlo to measure % inhibition at 1 uM MMV box compound.
Sequence of Calcium-dependent protein kinase 1 (P62344 whole entry): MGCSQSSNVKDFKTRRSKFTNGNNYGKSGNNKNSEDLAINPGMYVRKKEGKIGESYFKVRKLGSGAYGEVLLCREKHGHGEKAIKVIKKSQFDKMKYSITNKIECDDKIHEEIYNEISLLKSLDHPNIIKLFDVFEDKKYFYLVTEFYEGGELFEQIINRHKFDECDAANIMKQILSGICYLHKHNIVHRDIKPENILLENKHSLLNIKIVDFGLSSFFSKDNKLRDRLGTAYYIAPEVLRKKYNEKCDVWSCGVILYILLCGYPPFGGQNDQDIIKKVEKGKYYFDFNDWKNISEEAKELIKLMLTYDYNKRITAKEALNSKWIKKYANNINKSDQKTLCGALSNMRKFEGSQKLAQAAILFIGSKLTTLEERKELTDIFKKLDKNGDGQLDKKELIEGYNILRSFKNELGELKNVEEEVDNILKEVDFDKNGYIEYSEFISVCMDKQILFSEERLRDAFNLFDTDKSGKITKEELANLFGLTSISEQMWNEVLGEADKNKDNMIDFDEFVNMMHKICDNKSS

[5] = biological target: T4, Calcium-dependent protein kinase 4 (Plasmodium falciparum (isolate 3D7), UniProt Q8IBS5); experiment: MMV: CDPK4 Protein kinase inhibition assay using recombinant PfCDPK4, syntide2 peptide substrate, ATP and KinaseGlo to measure % inhibition at 1 uM MMV box compound.
T4 sequence (Q8IBS5 whole entry): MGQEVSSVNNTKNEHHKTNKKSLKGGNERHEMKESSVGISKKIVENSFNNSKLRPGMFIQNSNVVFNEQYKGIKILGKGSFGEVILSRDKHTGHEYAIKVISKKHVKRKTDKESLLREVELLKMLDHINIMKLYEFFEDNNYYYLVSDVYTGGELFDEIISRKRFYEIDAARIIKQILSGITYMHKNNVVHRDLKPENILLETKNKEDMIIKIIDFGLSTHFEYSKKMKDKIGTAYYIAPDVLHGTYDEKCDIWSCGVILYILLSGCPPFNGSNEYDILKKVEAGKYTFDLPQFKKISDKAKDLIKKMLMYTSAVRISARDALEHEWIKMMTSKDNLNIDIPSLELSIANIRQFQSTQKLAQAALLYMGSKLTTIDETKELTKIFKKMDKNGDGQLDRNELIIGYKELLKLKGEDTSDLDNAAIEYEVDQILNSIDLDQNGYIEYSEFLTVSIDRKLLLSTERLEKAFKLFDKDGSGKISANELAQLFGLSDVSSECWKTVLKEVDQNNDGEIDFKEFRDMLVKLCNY

Proline--tRNA ligase = biological target: T5, Proline--tRNA ligase (Plasmodium falciparum (isolate 3D7), UniProt Q8I5R7); experiment: MMV: ProRS recombinant Plasmodium falciparum Prolyl-tRNA-synthetase, assay with yeast tRNA, ATP, and proline and 3 uM MMV malaria box compound, assay read out with kinase glo as % inhibition.
T5 sequence (Q8I5R7 whole entry): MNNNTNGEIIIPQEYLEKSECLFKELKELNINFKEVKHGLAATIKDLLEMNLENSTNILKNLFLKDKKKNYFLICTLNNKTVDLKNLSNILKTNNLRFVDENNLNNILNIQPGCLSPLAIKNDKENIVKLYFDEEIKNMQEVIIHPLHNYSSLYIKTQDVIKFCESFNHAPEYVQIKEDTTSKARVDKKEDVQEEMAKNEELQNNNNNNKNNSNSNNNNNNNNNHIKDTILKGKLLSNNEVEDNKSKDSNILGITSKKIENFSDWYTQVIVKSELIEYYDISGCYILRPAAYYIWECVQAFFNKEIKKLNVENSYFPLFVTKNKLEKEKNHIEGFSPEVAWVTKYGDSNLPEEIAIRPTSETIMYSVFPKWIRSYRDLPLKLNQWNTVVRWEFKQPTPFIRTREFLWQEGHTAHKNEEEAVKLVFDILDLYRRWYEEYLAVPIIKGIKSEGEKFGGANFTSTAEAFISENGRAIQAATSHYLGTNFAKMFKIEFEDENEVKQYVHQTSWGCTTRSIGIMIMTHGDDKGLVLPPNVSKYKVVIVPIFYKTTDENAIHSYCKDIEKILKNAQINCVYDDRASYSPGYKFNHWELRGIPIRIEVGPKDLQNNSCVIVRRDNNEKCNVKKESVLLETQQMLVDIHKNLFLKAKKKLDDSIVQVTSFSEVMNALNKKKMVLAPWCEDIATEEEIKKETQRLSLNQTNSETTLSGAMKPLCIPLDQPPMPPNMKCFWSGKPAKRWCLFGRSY

Lysine--tRNA ligase = Lysine--tRNA ligase (Plasmodium falciparum (isolate 3D7), UniProt Q8IDJ8); experiment: MMV: KRS recombinant Plasmodium falciparum Lysyl-tRNA-synthetase, assay with yeast tRNA, ATP, and lysine and 3 uM MMV malaria box compound, assay read out with kinase glo as % inhibition.
Sequence of Lysine--tRNA ligase (Q8IDJ8 whole entry): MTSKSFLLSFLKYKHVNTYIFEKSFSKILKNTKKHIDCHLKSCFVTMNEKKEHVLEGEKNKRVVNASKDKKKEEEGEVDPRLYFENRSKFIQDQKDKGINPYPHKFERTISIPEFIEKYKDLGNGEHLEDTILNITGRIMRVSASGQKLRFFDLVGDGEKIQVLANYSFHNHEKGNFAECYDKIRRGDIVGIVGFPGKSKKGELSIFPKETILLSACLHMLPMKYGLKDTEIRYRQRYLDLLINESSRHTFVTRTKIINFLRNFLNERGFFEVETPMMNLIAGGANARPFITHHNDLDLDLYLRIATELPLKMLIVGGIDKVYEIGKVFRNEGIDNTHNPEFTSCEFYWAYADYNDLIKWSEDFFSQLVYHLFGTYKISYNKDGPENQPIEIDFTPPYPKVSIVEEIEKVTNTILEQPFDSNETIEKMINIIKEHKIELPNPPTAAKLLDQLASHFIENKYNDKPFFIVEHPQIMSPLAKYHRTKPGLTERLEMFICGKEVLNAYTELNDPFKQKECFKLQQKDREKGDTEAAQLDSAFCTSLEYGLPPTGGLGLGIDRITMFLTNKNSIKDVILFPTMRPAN

Row | Compound | IC50 [1] | IC50 [2] | IC50 [3] | IC50 [4] | IC50 [5] | IC50 (Proline--tRNA ligase) | IC50 (Lysine--tRNA ligase)
1 | O=C1c2ccccc2-c2nnc(-c3ccc(Br)cc3)cc21 | > 1000 nM | > 1000 nM | > 1000 nM | > 1000 nM | > 1000 nM | > 2500 nM | > 2500 nM
2 | Cc1nc2ccccc2c(O)c1CC=C(Cl)Cl | > 1000 nM | > 1000 nM | > 1000 nM | > 1000 nM | > 1000 nM | > 2500 nM | > 2500 nM
3 | CN(C)CCCNCc1ccc(-c2ccc(F)c(Cl)c2)o1 | > 1000 nM | > 1000 nM | > 1000 nM | > 1000 nM | > 1000 nM | > 2500 nM | > 2500 nM
4 | O=c1nc(C=Cc2ccc(Br)cc2)oc2ccccc12 | > 1000 nM | > 1000 nM | > 1000 nM | > 1000 nM | 700 nM | > 2500 nM | > 2500 nM
5 | COc1ccc2nc(N)nc(C)c2c1 | > 1000 nM | > 1000 nM | > 1000 nM | > 1000 nM | > 1000 nM | > 2500 nM | > 2500 nM
6 | COc1ccc(C(=O)NC(c2ccc(Cl)cc2Cl)c2cc(Cl)c3cccnc3c2O)cc1 (centres undefined) | > 1000 nM | > 1000 nM | > 1000 nM | > 1000 nM | > 1000 nM | > 2500 nM | > 2500 nM
7 | CCC(=O)Nc1nnc(Cc2ccc(OC)c(OC)c2)s1 | > 1000 nM | > 1000 nM | > 1000 nM | > 1000 nM | > 1000 nM | > 2500 nM | > 2500 nM
8 | COc1cccc(C(=O)Nc2ccc(-c3nc4ccccc4[nH]3)cc2)c1 | > 1000 nM | > 1000 nM | > 1000 nM | > 1000 nM | > 1000 nM | > 2500 nM | > 2500 nM
9 | CCOC(=O)c1cnc2ccc(Cl)cc2c1NCCCN(C)C | > 1000 nM | > 1000 nM | > 1000 nM | > 1000 nM | > 1000 nM | > 2500 nM | > 2500 nM
10 | O=C1c2ccccc2C2=Nc3ccccc3SC(c3cccc(F)c3)C12 (centres undefined) | > 1000 nM | > 1000 nM | > 1000 nM | > 1000 nM | > 1000 nM | > 2500 nM | > 2500 nM
11 | Cc1ccccc1OCCSc1nc2ccc(NC(=O)c3ccccc3)cc2s1 | > 1000 nM | > 1000 nM | > 1000 nM | > 1000 nM | > 1000 nM | > 2500 nM | > 2500 nM
12 | CC(C)(C)c1ccc(C(=O)Nc2c3c(nn2-c2cccc(Cl)c2)CSC3)cc1 | > 1000 nM | > 1000 nM | > 1000 nM | > 1000 nM | > 1000 nM | > 2500 nM | > 2500 nM
13 | CCOc1cc2c(cc1OCC)C(c1cc(Cl)c(O)c(OCC)c1)NCC2 (centres undefined) | > 1000 nM | > 1000 nM | > 1000 nM | > 1000 nM | > 1000 nM | > 2500 nM | > 2500 nM
14 | COc1ccc(N2CCN(C(CNC(=O)CC(C)(C)C)c3ccc4c(c3)OCO4)CC2)cc1 (centres undefined) | > 1000 nM | > 1000 nM | > 1000 nM | > 1000 nM | > 1000 nM | > 2500 nM | > 2500 nM
15 | CCCCCCn1c(=N)n(CC(O)COc2cccc(C)c2)c2ccccc21 (centres undefined) | > 1000 nM | > 1000 nM | > 1000 nM | > 1000 nM | > 1000 nM | > 2500 nM | > 2500 nM
16 | Oc1ccc(C(=C(Cl)Cl)c2ccc(O)cc2)cc1 | > 1000 nM | > 1000 nM | > 1000 nM | > 1000 nM | > 1000 nM | > 2500 nM | > 2500 nM
17 | COc1ccc(CN2CCN(Cc3ccccc3)CC2)c(O)c1 | > 1000 nM | > 1000 nM | > 1000 nM | > 1000 nM | > 1000 nM | > 2500 nM | > 2500 nM
18 | OC(CNCc1ccccc1)Cn1c2ccccc2c2ccccc21 (centres undefined) | > 1000 nM | > 1000 nM | > 1000 nM | > 1000 nM | > 1000 nM | > 2500 nM | > 2500 nM
19 | OC1CCCCC1C1(NC(=S)Nc2ccccc2)CCCCC1 (centres undefined) | > 1000 nM | > 1000 nM | > 1000 nM | > 1000 nM | > 1000 nM | > 2500 nM | > 2500 nM
20 | OC1=C2C(=Nc3ccccc3SC2c2ccc(Br)cc2)c2ccccc21 (centres undefined) | > 1000 nM | > 1000 nM | > 1000 nM | > 1000 nM | > 1000 nM | > 2500 nM | > 2500 nM
21 | COc1ccc(C(=O)C2CC2c2ccc(Cl)cc2)cc1 (centres undefined) | > 1000 nM | > 1000 nM | > 1000 nM | > 1000 nM | > 1000 nM | > 2500 nM | > 2500 nM
22 | CCN1CCN(c2c(C(=O)c3ccccc3)cnc3cc(OC)c(OC)cc23)CC1 | > 1000 nM | > 1000 nM | > 1000 nM | > 1000 nM | > 1000 nM | > 2500 nM | > 2500 nM

Reference: ChEMBL document CHEMBL3301562, “MMV Box screening against Plasmodium falciparum protein kinases and aminoacyl tRNA synthetases”
